Consider 34 molecules from US11629139B2 (priority 2017, dated 2023).

The test system of the first assay is vesicular stomatitis virus particles (VSV) pseudotyped with EboV Zaire GP. In words: microbe, parasite or virus in culture. The assay is classed as cell-based. Conditions: Vesicular stomatitis virus.
In general, IC50 refers to the point on the concentration scale where inhibition reaches its midpoint. With `O=C(CC12CC3CC(CC(C3)C1)C2)NCC(=O)N1CCN(Cc2cc(Br)cc([N+](=O)[O-])c2)CC1` [Compound 1340, 2-((1R,3R,5S)-Adamantan-1-yl)-N-(2-(4-(3-bromo-5-nitrobenzyl)piperazin-1-yl)-2-oxoethyl)acetamide], 1270 nM corresponded to half-maximal inhibition (IC50). The molecule `Nc1cc(Br)cc(CN2CCN(C(=O)CNC(=O)CC34CC5CC(CC(C5)C3)C4)CC2)c1` [Compound 1341, 2-((1R,3R,5S)-Adamantan-1-yl)-N-(2-(4-(3-amino-5-bromobenzyl)piperazin-1-yl)-2-oxoethyl)acetamide] returned a half-maximal inhibitory concentration (IC50) of 320 nM. Turning to `COC(=O)c1ccc(COc2ccccc2CN2CCN(C(=O)CNC(=O)C3C4CC(F)(F)CC43)CC2)cc1` (stereo not shown) [Compound 1344, Methyl 4-((2-((4-((3,3-difluorobicyclo[3.1.0]hexane-6-carbonyl)glycyl)piperazin-1-yl)methyl)phenoxy)methyl)benzoate], the IC50 worked out at 170 nM. Same read-out and setting: for `COC(=O)c1ccc(COc2ccc(Cl)cc2CN2CCN(C(=O)CNC(=O)C3C4CC(F)(F)CC43)CC2)cc1` (stereo not shown) [Compound 1346, Methyl 4-((4-chloro-2-((4-((3,3-difluorobicyclo[3.1.0]hexane-6-carbonyl)glycyl)piperazin-1-yl)methyl)phenoxy)methyl)benzoate] the value was 200 nM; for `N#Cc1cc(Br)cc(CN2CCN(C(=O)CNC(=O)CC34CC5CC(CC(C5)C3)C4)CC2)c1` [Compound 1348, 2-((1R,3R,5S)-Adamantan-1-yl)-N-(2-(4-(3-bromo-5-cyanobenzyl)piperazin-1-yl)-2-oxoethyl)acetamide], 1300 nM. As to `Nc1c(Cl)cc(Cl)cc1CN1CCN(C(=O)CNC(=O)CC23CC4CC(CC(C4)C2)C3)CC1` [Compound 1349, 2-((1R,3R,5S)-Adamantan-1-yl)-N-(2-(4-(2-amino-3,5-dichlorobenzyl)piperazin-1-yl)-2-oxoethyl)acetamide], inhibition was half-maximal at 500 nM (IC50). Consider `O=C(CC12CC3CC(CC(C3)C1)C2)NCC(=O)N1CCN(Cc2cc(Cl)cc(Cl)c2Cl)CC1` [Compound 1350, 2-((1R,3R,5S)-adamantan-1-yl)-N-(2-oxo-2-(4-(2,3,5-trichlorobenzyl)piperazin-1-yl)ethyl)acetamide], for which 800 nM corresponded to half-maximal inhibition (IC50). `O=C(CC12CC3CC(CC(C3)C1)C2)NCC(=O)N1CCN(Cc2cc(Cl)ccc2Br)CC1` [Compound 1351, 2-((1R,3R,5S)-Adamantan-1-yl)-N-(2-(4-(2-bromo-5-chlorobenzyl)piperazin-1-yl)-2-oxoethyl)acetamide] yielded a 50% inhibitory concentration (IC50) of 1100 nM. `C#Cc1ccc(F)c(CN2CCN(C(=O)CNC(=O)CC34CC5CC(CC(C5)C3)C4)CC2)c1` [Compound 1352, 2-((1R,3R,5S)-Adamantan-1-yl)-N-(2-(4-(5-ethynyl-2-fluorobenzyl)piperazin-1-yl)-2-oxoethyl)acetamide]: the IC50 worked out at 1700 nM. On the same count and under the same terms, as for `O=C(CC12CC3CC(CC(C3)C1)C2)NCC(=O)N1CCN(Cc2cc(F)c(F)cc2Cl)CC1` [Compound 1353, 2-((1R,3R,5S)-Adamantan-1-yl)-N-(2-(4-(2-chloro-4,5-difluorobenzyl)piperazin-1-yl)-2-oxoethyl)acetamide], the figure is 1500 nM. `O=C(CC12CC3CC(CC(C3)C1)C2)NCC(=O)N1CCN(Cc2cc(OC3CC3)ccc2F)CC1` [Compound 1354, 2-((1R,3R,5S)-Adamantan-1-yl)-N-(2-(4-(5-cyclopropoxy-2-fluorobenzyl)piperazin-1-yl)-2-oxoethyl)acetamide] yielded a half-inhibitory concentration (IC50) greater than 2000 nM. Molecule `Nc1ccc(Br)cc1CN1CCN(C(=O)CNC(=O)CC2CCC(F)(F)CC2)CC1` [Compound 1355, N-(2-(4-(2-Amino-5-bromobenzyl)piperazin-1-yl)-2-oxoethyl)-2-(4,4-difluorocyclohexyl)acetamide] had an IC50 of 1740 nM.

For the molecule `O=C(NCC(=O)N1CCN(Cc2cc(Br)ccc2Cl)CC1)C1C2CC(F)(F)CC21` (stereo not shown) [Compound 1356, N-(2-(4-(5-bromo-2-chlorobenzyl)piperazin-1-yl)-2-oxoethyl)-3,3-difluorobicyclo[3.1.0]hexane-6-carboxamide], the 50% inhibitory concentration (IC50) is greater than 2000 nM. Turning to `COC(=O)c1ccc(COc2ccc(Cl)cc2CN2CCN(C(=O)CNC(=O)C3CC3(F)F)CC2)cc1` (stereo not shown) [Compound 1357, Methyl 4-((4-chloro-2-((4-((2,2-difluorocyclopropane-1-carbonyl)glycyl)piperazin-1-yl)methyl)phenoxy)methyl)benzoate], the half-maximal inhibitory concentration (IC50) came out at 500 nM.

`COC(=O)c1ccc(COc2ccc(Cl)cc2CN2CCN(C(=O)CNC(=O)C(F)(F)C(F)F)CC2)cc1` [Compound 1358, Methyl 4-((4-chloro-2-((4-((2,2,3,3-tetrafluoropropanoyl)glycyl)piperazin-1-yl)methyl)phenoxy)methyl)benzoate] had an IC50 of 200 nM. The same measure, in the same setting: as for `Nc1ccc(-c2ccc(F)cc2)cc1CN1CCN(C(=O)CNC(=O)CC2CCC(F)(F)CC2)CC1` [Compound 1359, N-(2-(4-((4-Amino-4′-fluoro-[1,1′-biphenyl]-3-yl)methyl)piperazin-1-yl)-2-oxoethyl)-2-(4,4-difluorocyclohexyl)acetamide], the figure is greater than 2000 nM; as for `NC(=O)Nc1ccc(Br)cc1CN1CCN(C(=O)CNC(=O)CC2CCC(F)(F)CC2)CC1` [Compound 1360, N-(2-(4-(5-Bromo-2-ureidobenzyl)piperazin-1-yl)-2-oxoethyl)-2-(4,4-difluorocyclohexyl)acetamide], greater than 2000 nM. `NC(=O)Nc1ccc(Cl)cc1CN1CCN(C(=O)CNC(=O)CC2CCC(F)(F)CC2)CC1` [Compound 1361, N-(2-(4-(5-Chloro-2-ureidobenzyl)piperazin-1-yl)-2-oxoethyl)-2-(4,4-difluorocyclohexyl)acetamide] registered an IC50 greater than 2000 nM. In turn, `Nc1ccc(Br)cc1CN1CCN(C(=O)CNC(=O)C2C3CC(F)(F)CC32)CC1` (stereo not shown) [Compound 1362, N-(2-(4-(2-Amino-5-bromobenzyl)piperazin-1-yl)-2-oxoethyl)-3,3-difluorobicyclo[3.1.0]hexane-6-carboxamide] gave an IC50 greater than 2000 nM. On the same count and under the same terms, for `O=C(CC12CC3CC(CC(C3)C1)C2)NCC(=O)N1CCN(Cc2c(Cl)cccc2Cl)CC1` [Compound 1363, 2-((1R,3R,5S)-Adamantan-1-yl)-N-(2-(4-(2,6-dichlorobenzyl)piperazin-1-yl)-2-oxoethyl)acetamide] the value was 1000 nM. In the case of `NC(=O)c1ccc(Br)cc1CN1CCN(C(=O)CNC(=O)CC23CC4CC(CC(C4)C2)C3)CC1` [Compound 1364, 2-((4-((2-((1R,3R,5S)-Adamantan-1-yl)acetyl)glycyl)piperazin-1-yl)methyl)-4-bromobenzamide], it took 1900 nM to reach half-maximal inhibition (IC50).

On to `O=C(CC1CCC(F)(F)CC1)NCC(=O)N1CCN(Cc2cc(Cl)cc(OC3CC3)c2)CC1` [Compound 1365, N-(2-(4-(3-Chloro-5-cyclopropoxybenzyl)piperazin-1-yl)-2-oxoethyl)-2-(4,4-difluorocyclohexyl)acetamide], for which the 50% inhibitory concentration (IC50) turned out to be 1600 nM. Still for that read-out and setting: as for `O=C(CC1CCC(F)(F)CC1)NCC(=O)N1CCN(Cc2cc(Cl)ccc2Cl)CC1` [Compound 1366, N-(2-(4-(2,5-Dichlorobenzyl)piperazin-1-yl)-2-oxoethyl)-2-(4,4-difluorocyclohexyl)acetamide], the figure is greater than 2000 nM; as for `O=C(CC1CCC(F)(F)CC1)NCC(=O)N1CCN(Cc2cc(Cl)ccc2F)CC1` [Compound 1367, N-(2-(4-(5-chloro-2-fluorobenzyl)piperazin-1-yl)-2-oxoethyl)-2-(4,4-difluorocyclohexyl)acetamide], greater than 2000 nM; as for `O=C(CC1CCC(F)(F)CC1)NCC(=O)N1CCN(Cc2cc(Cl)c(F)cc2F)CC1` [Compound 1368, N-(2-(4-(5-chloro-2,4-difluorobenzyl)piperazin-1-yl)-2-oxoethyl)-2-(4,4-difluorocyclohexyl)acetamide], greater than 2000 nM. `O=C(CC1CCC(F)(F)CC1)NCC(=O)N1CCN(Cc2cc(Cl)cc(F)c2F)CC1` [Compound 1369, N-(2-(4-(5-Chloro-2,3-difluorobenzyl)piperazin-1-yl)-2-oxoethyl)-2-(4,4-difluorocyclohexyl)acetamide] returned an IC50 greater than 2000 nM. As to `O=C(CC1CCC(F)(F)CC1)NCC(=O)N1CCN(Cc2cc(Br)ccc2F)CC1` [Compound 1370, N-(2-(4-(5-Bromo-2-fluorobenzyl)piperazin-1-yl)-2-oxoethyl)-2-(4,4-difluorocyclohexyl)acetamide], the half-maximal inhibitory concentration (IC50) was roughly 2200 nM.

`N#Cc1ccc(Br)cc1CN1CCN(C(=O)CNC(=O)CC2CCC(F)(F)CC2)CC1` [Compound 1371, N-(2-(4-(5-Bromo-2-cyanobenzyl)piperazin-1-yl)-2-oxoethyl)-2-(4,4-difluorocyclohexyl)acetamide]: the IC50 was greater than 2000 nM. Turning to `O=C(CC1CCC(F)(F)CC1)NCC(=O)N1CCN(Cc2cc(Cl)ccc2OC(F)(F)F)CC1` [Compound 1372], the 50% inhibitory concentration (IC50) was greater than 2000 nM. With `O=C(CC1CCC(F)(F)CC1)NCC(=O)N1CCN(Cc2cc(Br)ccc2Cl)CC1` [Compound 1374, N-(2-(4-(5-Bromo-2-chlorobenzyl)piperazin-1-yl)-2-oxoethyl)-2-(4,4-difluorocyclohexyl)acetamide], the IC50 was greater than 2000 nM.

The molecule `O=C(CC1CCC(F)(F)CC1)NCC(=O)N1CCN(Cc2cc(Br)ccc2NC(=O)C2CC2)CC1` [Compound 1375, N-(4-Bromo-2-((4-((2-(4,4-difluorocyclohexyl)acetyl)glycyl)piperazin-1-yl)methyl)phenyl)cyclopropanecarboxamide] registered an IC50 greater than 2000 nM. Regarding `COC(=O)c1ccc(COc2ccccc2CN2CCN(C(=O)CNC(=O)C3(F)CC3)CC2)cc1` [Compound 1376, Methyl 4-((2-((4-((1-fluorocyclopropane-1-carbonyl)glycyl)piperazin-1-yl)methyl)phenoxy)methyl)benzoate], the half-inhibitory concentration (IC50) was greater than 2000 nM. Consider `O=C(CC1CCC(F)(F)CC1)NCC(=O)N1CCN(Cc2cc(Cl)ccc2NC(=O)C2CC2)CC1` [Compound 1378, N-(4-Chloro-2-((4-((2-(4,4-difluorocyclohexyl)acetyl)glycyl)piperazin-1-yl)methyl)phenyl)cyclopropanecarboxamide], for which the half-maximal inhibitory concentration (IC50) is greater than 2000 nM.

Still in this assay, the particulars now being: read-out: IC50.
In the case of `CC(=O)Nc1ccc(Cl)cc1CN1CCN(C(=O)CNC(=O)CC23CC4CC(CC(C4)C2)C3)CC1` [Compound 1342, N-(2-(4-(2-Acetamido-5-chlorobenzyl)piperazin-1-yl)-2-oxoethyl)-2-((3s)-adamantan-1-yl)acetamide], the IC50 stood at 1100 nM.
